# Measurements reported in PMC7195640, “New Synthetic 3-Benzoyl-5-Hydroxy-2H-Chromen-2-One (LM-031) Inhibits Polyglutamine Aggregation and Promotes Neurite Outgrowth through Enhancement of CREB, NRF2, and Reduction of AMPKα in SCA17 Cell Models” (Oxidative Medicine and Cellular Longevity, 2020).
# Tests used:
# [1] = MTT cytotoxicity assay in uninduced TBP/Q79-GFP 293 cells; assay type: cell-based; details: human
# Description: (§1) Compound cytotoxicity was assessed by colorimetric assay measuring cell metabolic activity. Briefly, TBP/Q79-GFP 293 and SH-SY5Y cells were seeded on a 48-well plate (5 × 10^4/well), grown for 20 h, and treated with licochalcone A or LM compounds (0.1–100 μM). After one day, cell viability was measured based on reduction of 3,(4,5-dimethylthiazol-2-yl)-2,5-diphenyltetrazolium bromide (MTT), and the absorbance of the insoluble purple formazan product at OD 570 nm was read by a FLx800 fluorescence microplate reader (Bio-Tek, Winooski, VT, USA).
# [2] = MTT cytotoxicity assay in uninduced TBP/Q79-GFP SH-SY5Y cells; assay type: cell-based; details: human
# Description: as §1
# [3] = test system: TBP/Q79-GFP-expressing 293 cells; test: TBP/Q79 293 aggregation assay (high-content analysis of GFP fluorescence); assay type: cell-based, Human
# Description: GFP fluorescence was evaluated to reflect TBP aggregation in TBP/Q79-GFP-expressing 293 cells. Briefly, cells were plated on 96-well (2 × 10^4/well) dishes, grown for 24 h and treated with different concentrations of licochalcone A or LM compounds (0.1 nM−100 μM) or a positive control suberoylanilide hydroxamic acid (SAHA, 100 nM) (Cayman Chemical, Ann Arbor, MI, USA). After 8 h, doxycycline (10 μg/mL) was added to the cells for 6 days to induce TBP/Q79-GFP expression. In addition, oxaliplatin (5 μM) (Sigma-Aldrich, St Louis, MO, USA) was included for TBP/Q79-GFP aggregate accumulation via blocking cell-cycle progression. On the eighth day, the cells were stained with Hoechst 33342 (0.1 μg/mL; Sigma-Aldrich) for 30 min, and cell images were automatically recorded (excitation/emission wavelengths of 482/536 nm for GFP and 377/447 nm for Hoechst 33342) by using an ImageXpress Micro Confocal High-Content Imaging System (Molecular Devices, Sunnyvale, CA, USA). Aggregation was determined by a Transfluor technology based on GFP fluorescence intensity. To quantify aggregation, the relative aggregation level in untreated cells was set as 100%. Aggregation was measured in wells containing ≥80% viable cells.
# [4] = test system: TBP/Q79-GFP-expressing SH-SY5Y cells; test: TBP/Q79-GFP SH-SY5Y aggregation assay (also with shRNA knockdown or AICAR); assay type: cell-based, Human; details: for polyQ aggregation / aggregation: SH-SY5Y cells; for reduction of aggregation: differentiated TBP/Q79-GFP SH-SY5Y cells, vs untreated
# Description: (§2) On day 1, 2 × 10^4 of SH-SY5Y TBP/Q79-GFP cells were seeded on a 24-well plate with retinoic acid (10 μM; Sigma-Aldrich) added to induce neuronal differentiation. On day 2, the cells were treated with LM-031 or licochalcone A (100 nM) for 8 h and TBP/Q79-GFP expression was induced as described. On day 8, cells were stained with Hoechst 33342 (0.1 μg/mL) and the aggregation percentage and neurite outgrowth were assessed by high-content analysis as described. The morphologic differentiation of TBP/Q79-GFP-expressing cells was analyzed by using the Neurite Outgrowth Application Module (Molecular Devices).
# (§3) To knockdown the expression of NRF2 and CREB in TBP/Q79-GFP SH-SY5Y cells, lentiviruses with short hairpin RNA (shRNA) targeting NRF2 (TRCN0000007558), CREB (TRCN0000226466), and a negative control scrambled (TRC2.Void) were obtained from the National RNAi Core Facility, Institute of Molecular Biology/Genomic Research Center, Academia Sinica, Taipei, Taiwan. On day 1, cells were plated on 6-well plates (8 × 10^5/well for protein analysis) or 24-well plates (2 × 10^4/well for neurite outgrowth analysis) in the presence of retinoic acid as described. On day 2, the cells were infected with lentivirus (multiplicity of infection: 3) in the presence of polybrene (8 μg/mL; Sigma-Aldrich) to increase infectivity. On day 3, the cells were pretreated with LM-031 or licochalcone A (100 nM) for 8 h; induction of TBP/Q79-GFP expression followed. On day 9, the cells were collected for NRF2 and CREB protein analysis or stained with Hoechst 33342 and analyzed for aggregation and neurite outgrowth as described.
# (§4) AICAR (5-aminoimidazole-4-carboxamide 1-β-D-ribofuranoside) (Sigma-Aldrich), an analog of adenosine monophosphate (AMP), was used to stimulate AMP-dependent protein kinase (AMPK) activity. TBP/Q79-GFP SH-SY5Y cells were plated on 6-well or 24-well plates in the presence of retinoic acid as described. On day 2, the cells were pretreated with LM-031 or licochalcone A (100 nM) for 4 h; AICAR (0.1 mM) treatment and TBP/Q79-GFP induction followed. On day 8, the cells were collected for AMPKα and pAMPKα protein analysis or stained with Hoechst 33342 and analyzed for aggregation and neurite outgrowth as described.
# [5] = test system: TBP/Q79-GFP-expressing SH-SY5Y cells; test: TBP/Q79-GFP SH-SY5Y neurite outgrowth assay (also with shRNA knockdown or AICAR); assay type: cell-based, Human; details: for increased neurite outgrowth: vs untreated
# Description: as §2, §3, §4
# CREB, pCREB (S133) = test: Western blot of CREB and pCREB in TBP/Q79-GFP SH-SY5Y cells; assay type: cell-based, Human; details: 100 nM; for pCREB/CREB (phosphor/total ratio), uninduced = 100%: induced SH-SY5Y cells, untreated induced 85%; for pCREB level, scrambled shRNA uninduced = 100%: scrambled shRNA-infected induced SH-SY5Y cells, untreated 81%
# Description: (§5) Total proteins from TBP/Q79-GFP SH-SY5Y cells were obtained using a lysis buffer containing 50 mM Tris-HCl (pH 8.0), 150 mM NaCl, 1 mM EDTA (pH 8.0), 1 mM EGTA (pH 8.0), 0.1% SDS, 0.5% sodium deoxycholate, 1% Triton X-100, and a protease inhibitor cocktail (Sigma-Aldrich). After quantitation using a protein assay kit (Bio-Rad, Hercules, CA, USA), proteins (20 μg) were separated on 10−12% SDS-polyacrylamide gel electrophoresis and blotted onto polyvinylidene difluoride (PVDF) membranes (Sigma-Aldrich) by reverse electrophoresis. After blocking, the membrane was probed with CREB (1 : 1000; Santa Cruz Biotechnology, Santa Cruz, CA, USA), pCREB (S133) (1 : 1000; Santa Cruz Biotechnology), BCL2 (1 : 500; BioVision, Milpitas, CA, USA), GADD45B (1 : 1000; Abcam, Cambridge, MA, USA), BAX (1 : 500; BioVision), NRF2 (1 : 500; Santa Cruz Biotechnology), AMPKα (1 : 1000; Cell Signaling, Danvers, MA, USA), pAMPKα (T172) (1 : 1000; Cell Signaling), GAPDH (1 : 1000) (MDBio Inc., Taipei, Taiwan), or β-actin (1 : 5000; Millipore, Billerica, MA, USA) primary antibody at 4°C overnight. The immune complexes were detected using a horseradish peroxidase-conjugated goat anti-mouse or goat anti-rabbit IgG antibody (1 : 10000; GeneTex, Irvive, CA, USA) and a chemiluminescent substrate (Millipore).
# as §3
# GADD45B = test: Western blot of GADD45B in TBP/Q79-GFP SH-SY5Y cells; assay type: cell-based, Human; details: 100 nM, induced SH-SY5Y cells; untreated induced 66–70%
# Description: as §5
# BAX = test: Western blot of BAX in TBP/Q79-GFP SH-SY5Y cells; assay type: cell-based, Human; details: 100 nM, induced SH-SY5Y cells; untreated induced 156%
# Description: as §5
# NRF2 = test: Western blot of NRF2 in TBP/Q79-GFP SH-SY5Y cells; assay type: cell-based, Human; details: 100 nM; for NRF2 protein level, uninduced = 100%: induced SH-SY5Y cells, untreated induced 72%; for NRF2 level, scrambled shRNA uninduced = 100%: scrambled shRNA-infected induced SH-SY5Y cells, untreated 54%
# Description: as §5, §3
# AMPKα, pAMPKα (T172) = test: Western blot of AMPKα and pAMPKα in TBP/Q79-GFP SH-SY5Y cells; assay type: cell-based, Human; details: induced SH-SY5Y cells
# Description: as §5, §4
# [6] = 100 nM compound + AICAR 0.1 mM, AICAR alone 5.2%
# [7] = 100 nM, no AICAR, no treatment 4.6%
# [8] = 100 nM compound + AICAR 0.1 mM, SH-SY5Y cells, AICAR alone 17.2 μm
# [9] = 100 nM, NRF2 shRNA, SH-SY5Y cells
# [10] = 100 nM, differentiated TBP/Q79-GFP SH-SY5Y cells
# [11] = 100 nM, differentiated TBP/Q79-GFP SH-SY5Y cells, untreated 21.1 μm
# [12] = 100 nM, no AICAR, SH-SY5Y cells, no treatment 19.6 μm
# [13] = 100 nM, scrambled shRNA, SH-SY5Y cells, no treatment 21.6 μm
structure (smiles),measurement,setting,value
"O=C(c1ccccc1)c1cc2c(O)cccc2oc1=O [LM-031, 3-benzoyl-5-hydroxy-2H-chromen-2-one]",IC50 at 24 h,[1],> 100 µM
same,IC50 at 24 h,[2],> 100 µM
same,TBP/Q79-GFP aggregation (untreated cells = 100%),"[3]; 10 nM–10 μM, significantly better than SAHA 100 nM (82%)",74–76%
same,polyQ aggregation,[4]; [6],4.0%
same,aggregation,"[4]; 100 nM, NRF2 shRNA",5.5%
same,reduction of aggregation,[4]; 100 nM,18–20%
same,polyQ aggregation,[4]; [7],3.6–3.7%
same,neurite outgrowth,[5]; [8],21.6 μm
same,neurite outgrowth,[5]; [9],17.8–18.1 μm
same,increased neurite outgrowth,[5]; [10],19−22%
same,neurite outgrowth,[5]; [11],25.1–25.6 μm
same,neurite outgrowth,[5]; [12],23.0–23.6 μm
same,neurite outgrowth,[5]; [13],23.8–24.6 μm
same,"pCREB/CREB (phosphor/total ratio), uninduced = 100%","CREB, pCREB (S133)",110%
same,"pCREB level, scrambled shRNA uninduced = 100%","CREB, pCREB (S133)",107–112%
same,"GADD45B protein level, uninduced = 100%",GADD45B,104–105%
same,"BAX protein level, uninduced = 100%",BAX,103%
same,"NRF2 protein level, uninduced = 100%",NRF2,96–100%
same,"NRF2 level, scrambled shRNA uninduced = 100%",NRF2,84–93%
same,"pAMPKα level, uninduced = 100%","AMPKα, pAMPKα (T172); 100 nM compound + AICAR 0.1 mM, AICAR alone 160%",96%
same,"phosphor/total ratio of AMPKα, uninduced = 100%","AMPKα, pAMPKα (T172); 100 nM, untreated induced 170%",130%
same,"pAMPKα level (phosphor/total ratio of AMPKα), uninduced = 100%","AMPKα, pAMPKα (T172); 100 nM, no AICAR, untreated induced 134%",110%
"C=CC(C)(C)c1cc(/C=C/C(=O)c2ccc(O)cc2)c(OC)cc1O [licochalcone A, reference compound]",IC50 at 24 h,"[1]; uninduced TBP/Q79-GFP 293 cells, MTT, compounds 0.1−100 μM for 24 h, read-out: IC50 cytotoxicity",53 µM
same,IC50 at 24 h,"[2]; uninduced TBP/Q79-GFP SH-SY5Y cells, MTT, compounds 0.1−100 μM for 24 h, read-out: IC50 cytotoxicity",57 µM
same,polyQ aggregation,[4]; [6],4.9%
same,aggregation,"[4]; 100 nM, NRF2 shRNA",5.5%
same,reduction of aggregation,[4]; 100 nM,18–20%
same,polyQ aggregation,[4]; [7],3.6–3.7%
same,neurite outgrowth,[5]; [8],18.4 μm
same,neurite outgrowth,[5]; [9],17.8–18.1 μm
same,increased neurite outgrowth,[5]; [10],19−22%
same,neurite outgrowth,[5]; [11],25.1–25.6 μm
same,neurite outgrowth,[5]; [12],23.0–23.6 μm
same,neurite outgrowth,[5]; [13],23.8–24.6 μm
same,"pCREB/CREB (phosphor/total ratio), uninduced = 100%","CREB, pCREB (S133)",110%
same,"pCREB level, scrambled shRNA uninduced = 100%","CREB, pCREB (S133)",107–112%
same,"GADD45B protein level, uninduced = 100%",GADD45B,104–105%
same,"BAX protein level, uninduced = 100%",BAX,103%
same,"NRF2 protein level, uninduced = 100%",NRF2,96–100%
same,"NRF2 level, scrambled shRNA uninduced = 100%",NRF2,84–93%
Cc1ccc(/C=C/C(=O)c2c(O)c3ccccc3oc2=O)cc1 [LM-016],IC50 at 24 h,[1],> 100 µM
same,IC50 at 24 h,[2],> 100 µM
"NC(=O)c1ncn([C@@H]2O[C@H](CO)[C@@H](O)[C@H]2O)c1N [AICAR, 5-aminoimidazole-4-carboxamide 1-β-D-ribofuranoside]",aggregation,"[4]; AICAR 0.1 mM alone, no treatment 4.6%",5.2%
same,neurite outgrowth,"[5]; AICAR 0.1 mM alone, SH-SY5Y cells, no treatment 19.6 μm",17.2 μm
same,"pAMPKα level, uninduced = 100%","AMPKα, pAMPKα (T172); AICAR 0.1 mM alone, without AICAR 134%",160%
COc1ccc(C(=O)/C=C/c2cc(Br)ccc2O)cc1 [LM-004],IC50 at 24 h,[1],45 µM
same,IC50 at 24 h,[2],54 µM
COc1cccc(/C=C/C(=O)c2ccc(O)cc2)c1O [LM-026],IC50 at 24 h,[1],53 µM
same,IC50 at 24 h,[2],58 µM
COc1ccc(O)c(/C=C/C(=O)c2ccccc2)c1 [LM-006],IC50 at 24 h,[1],47 µM
same,IC50 at 24 h,[2],56 µM
"O=C(CCCCCCC(=O)Nc1ccccc1)NO [SAHA, suberoylanilide hydroxamic acid, reference compound]",TBP/Q79-GFP aggregation (untreated cells = 100%),"[3]; 100 nM, Dox + oxaliplatin 6 days",82%
